For assay [1], the system named is S. mutans. Put plainly: Growth curves (optical density) of S. mutans in liquid BHI culture. Type of assay: cell-based, Streptococcus mutans. The method, then: Subsequently, 50-, 100- and 150-μl volumes of these two fractions, 3-10 kD and 0-3 kD, respectively, were added to a liquid culture of S. mutans and to a liquid culture of S. sobrinus, and the optical density was measured in a 48-well Fluostar luminometer every half-hour, with each treatment in triplicate, for 12-19 hours. […]
In order to corroborate that the peptides identified are those responsible for the inhibitory activity against cariogenic bacteria, the S12E (bacteriocins of bacterial origin) and T5A (peptide of human origin with a structure similar to that of defensins) peptides were chemically synthesised, obtaining approximately 4 mg of each of said peptides with a purity greater than 80%. They were totally re-suspended in 0.1% trichloroacetic acid (TCA) and the experiments designed to test the inhibition of liquid cultures of S. mutans by said chemically-synthesised compounds were performed. […]

Assay [2] concerns S. sobrinus. In words: Growth curves (optical density) of S. sobrinus in liquid BHI culture. Type of assay: cell-based, Streptococcus sobrinus. The note with it: chemically synthesised peptide, purity greater than 95%, re-suspended in ultrapure water, FIG. 6B. As for the experimental part: Subsequently, […], respectively, were added to a liquid culture of S. mutans and to a liquid culture of S. sobrinus, and the optical density was measured in a 48-well Fluostar luminometer every half-hour, with each treatment in triplicate, for 12-19 hours.

Bridges are numbered along the chain shown (N, C = ends). Where no end group is shown, it is not given here.

The source of these data is US9629883B2, “Anticaries compositions and probiotics/prebiotics” (CENTRO SUPERIOR DE INVESTIGACIÓN EN SALUD PÚBLICA (CSISP), priority 2010, dated 2017).

With “S12E peptide: chemically synthesised bacteriocin-type anti-microbial peptide of bacterial origin, 39 amino acids, from S12E fosmid (MPFEAVGEARLAARTSRPGDRGPGNRAEESPDSAEQGGG; Streptococcus species)”, the “inhibitory activity against cultures of S. mutans” value in assay [1] (chemically synthesised peptide, purity greater than 80%, re-suspended in 0.1% TCA, FIG. 5) is on record as “inhibitory activity against cultures of S. mutans was confirmed”. In addition, the “inhibitory effect on S. mutans” value in assay [1] (chemically synthesised peptide, purity greater than 95%, re-suspended in ultrapure water, FIG. 6A) is “dose-dependent inhibitory effect”. The “inhibitory effect on S. sobrinus” value in assay [2] was “dose-dependent inhibitory effect”.
Consider “T5A peptide: chemically synthesised defensin-type peptide of human origin, 26 amino acids; active form has disulfide bridge between cysteines 3 and 12 (MSCKKESLGSKCNYILLWYQPTESPH; disulfide 3-12; listed as Homo sapiens)”, for which, in assay [1] (chemically synthesised peptide, first synthesis without disulfide bridge), the “inhibitory effect on liquid cultures of S. mutans” value is reported as “no inhibitory effect”. Moreover, in assay [1] (synthesised peptide with disulfide bridge between cysteines 3 and 12, 80 μg), the “inhibition of the growth of S. mutans at maximum peptide concentration” value is “total inhibition of the growth”. The “inhibition of the growth of S. mutans” value in assay [1] (synthesised peptide with disulfide bridge between cysteines 3 and 12, different concentrations, FIG. 7) was “capable of inhibiting the growth”.
